Values after ≈ are worked out from the molar mass of the structure shown.
Legend:
Botrytis cinerea [1] = test: Antifungal activity against Botryotinia fuckeliana assessed as inhibition of mycelium growth after 1 week; assay type: functional, organism-based; conditions: 168 h
Fusarium solani [2] = test: Antifungal activity against Fusarium solani assessed as inhibition of mycelium growth after 1 week; assay type: functional, organism-based
Alternaria solani [3] = test: Antifungal activity against Alternaria solani assessed as inhibition of mycelium growth at 100 ug/ml […]; assay type: functional; conditions: 168 h, read-out: GI
Alternaria solani [4] = test: Antifungal activity against Alternaria solani assessed as inhibition of mycelium growth after 1 week; assay type: functional, organism-based
Botrytis cinerea [5] = test: Antifungal activity against Botryotinia fuckeliana assessed as inhibition of mycelium growth at 100 ug/ml […]; assay type: functional; conditions: 168 h, read-out: GI
[6] = test system: Colletotrichum gloeosporioides; test: Antifungal activity against Colletotrichum gloeosporioides assessed as inhibition of mycelium growth at 100 ug/ml after 3 to 4 days; conditions: 72 to 96 h, read-out: GI
Cytospora [7] = test: Antifungal activity against Cytospora sp. assessed as […]; assay type: functional, organism-based
Cytospora [8] = test: Antifungal activity against Cytospora sp. assessed as inhibition of mycelium growth at 100 ug/ml after 3 to 4 days; conditions: 72 to 96 h, read-out: GI
[9] = test system: Colletotrichum gloeosporioides; test: Antifungal activity against Colletotrichum gloeosporioides assessed as inhibition of mycelium growth […]; assay type: functional, organism-based
Fusarium solani [10] = test: Antifungal activity against Fusarium solani assessed as inhibition of mycelium growth at 100 ug/ml […]; assay type: functional; conditions: 168 h, read-out: GI
[11] = Fusarium solani, 168 h, read-out: IC50
[12] = Alternaria solani, 168 h, read-out: IC50
[13] = Cytospora, 168 h, read-out: IC50
[14] = Colletotrichum gloeosporioides, read-out: IC50

Cn1c(COc2ccc(Cl)cc2)nc2ccccc21
IC50 (Botrytis cinerea [1]): 26.8 µg/mL (≈ 98.3 µM) | IC50 (Fusarium solani [2]; [11]): > 100 µg/mL | inhibition of growth at 100 µg/mL (Alternaria solani [3]): 77.8% | IC50 (Alternaria solani [4]; [12]): 62.5 µg/mL (≈ 229 µM) | inhibition of growth at 100 µg/mL (Botrytis cinerea [5]): 83% | inhibition of growth at 100 µg/mL [6]: 90.5% | IC50 (Cytospora [7]; [13]): 24.9 µg/mL (≈ 91.3 µM) | inhibition of growth at 100 µg/mL (Cytospora [8]): 76.3% | IC50 [9, 14]: 41.3 µg/mL (≈ 151 µM) | inhibition of growth at 100 µg/mL (Fusarium solani [10]): 64.1%

Cn1c(CCl)nc2cc([N+](=O)[O-])ccc21
IC50 (Botrytis cinerea [1]): > 100 µg/mL | IC50 (Fusarium solani [2]; [11]): 23.3 µg/mL (≈ 103 µM) | inhibition of growth at 100 µg/mL (Alternaria solani [3]): 100% | IC50 (Alternaria solani [4]; [12]): 27.9 µg/mL (≈ 124 µM) | inhibition of growth at 100 µg/mL (Botrytis cinerea [5]): 48.7% | inhibition of growth at 100 µg/mL [6]: 100% | IC50 (Cytospora [7]; [13]): 22.5 µg/mL (≈ 99.6 µM) | inhibition of growth at 100 µg/mL (Cytospora [8]): 100% | IC50 [9, 14]: 28 µg/mL (≈ 124 µM) | inhibition of growth at 100 µg/mL (Fusarium solani [10]): 100%

Cn1c(COc2ccc3c(c2)OCO3)nc2cc([N+](=O)[O-])ccc21
IC50 (Botrytis cinerea [1]): 69.1 µg/mL (≈ 211 µM) | IC50 (Fusarium solani [2]): Not Active | inhibition of growth at 100 µg/mL (Alternaria solani [3]): 7.22% | IC50 (Alternaria solani [4]): Not Active | inhibition of growth at 100 µg/mL (Botrytis cinerea [5]): 91.2% | inhibition of growth at 100 µg/mL [6]: < 5% | IC50 (Cytospora [7]): Not Active | inhibition of growth at 100 µg/mL (Cytospora [8]): 12.4% | IC50 [9]: Not Active | inhibition of growth at 100 µg/mL (Fusarium solani [10]): 34.8%

Cn1c(COc2ccccc2)nc2ccccc21
IC50 (Botrytis cinerea [1]): > 150 µg/mL | IC50 (Fusarium solani [2]; [11]): 18.6 µg/mL (≈ 78.1 µM) | inhibition of growth at 100 µg/mL (Alternaria solani [3]): 75.4% | IC50 (Alternaria solani [4]; [12]): 27.6 µg/mL (≈ 116 µM) | inhibition of growth at 100 µg/mL (Botrytis cinerea [5]): 29.8% | inhibition of growth at 100 µg/mL [6]: 87.3% | IC50 (Cytospora [7]; [13]): 50 µg/mL (≈ 210 µM) | inhibition of growth at 100 µg/mL (Cytospora [8]): 84.2% | IC50 [9, 14]: 20.8 µg/mL (≈ 87.1 µM) | inhibition of growth at 100 µg/mL (Fusarium solani [10]): 84.5%

ClCc1nc2ccccc2[nH]1
IC50 (Botrytis cinerea [1]): > 100 µg/mL | IC50 (Fusarium solani [2]): Not Active | inhibition of growth at 100 µg/mL (Alternaria solani [3]): 25.3% | IC50 (Alternaria solani [4]; [12]): > 100 µg/mL | inhibition of growth at 100 µg/mL (Botrytis cinerea [5]): 53.2% | inhibition of growth at 100 µg/mL [6]: 67.6% | IC50 (Cytospora [7]): Not Active | inhibition of growth at 100 µg/mL (Cytospora [8]): < 5% | IC50 [9, 14]: 83.1 µg/mL (≈ 499 µM) | inhibition of growth at 100 µg/mL (Fusarium solani [10]): 6.59%

CCOC(=O)c1ccc(OCc2nc3ccccc3n2C)cc1
IC50 (Botrytis cinerea [1]): > 150 µg/mL | IC50 (Fusarium solani [2]; [11]): > 150 µg/mL | inhibition of growth at 100 µg/mL (Alternaria solani [3]): 39.1% | IC50 (Alternaria solani [4]; [12]): > 150 µg/mL | inhibition of growth at 100 µg/mL (Botrytis cinerea [5]): 35.9% | inhibition of growth at 100 µg/mL [6]: 71.7% | IC50 (Cytospora [7]; [13]): 52.6 µg/mL (≈ 169 µM) | inhibition of growth at 100 µg/mL (Cytospora [8]): 79.9% | IC50 [9, 14]: 49.7 µg/mL (≈ 160 µM) | inhibition of growth at 100 µg/mL (Fusarium solani [10]): 21.4%
